Measured values taken from US11926614B2, “1,2,4-triazole derivatives as tankyrase inhibitors” (priority 2018, dated 2024).
Read-outs that look alike come from different tables or passages of the source.

Key:
[1] = biological target: TNKS2 (Homo sapiens (Human), UniProt Q9H2K2); test: Biochemical IC50 TNKS2; conditions: read-out: Biochemical IC50 TNKS2
Source text: (§1) XLfit (idbs) was used to determine the IC50-values in inhibition experiments. The following formula was chosen to fit the data points (Langmuir Binding Isotherm): fit=((A+(B*x))+4(C−B)*(1−exp((−1*D)*x)))/D)), res=(y−fit)

[2] = test system: HEK293; test: Cellular IC50 HEK293; format: cell-based
Source text: as §1

[3] = Homo sapiens, HEK293, HEK293; read-out: Cellular IC50 HEK293
[4] = Homo sapiens, HEK293, read-out: Cellular IC50 HEK293
[5] = Homo sapiens, HEK293; read-out: Cellular IC50 HEK293

Chain of TNKS2 (Q9H2K2 whole entry): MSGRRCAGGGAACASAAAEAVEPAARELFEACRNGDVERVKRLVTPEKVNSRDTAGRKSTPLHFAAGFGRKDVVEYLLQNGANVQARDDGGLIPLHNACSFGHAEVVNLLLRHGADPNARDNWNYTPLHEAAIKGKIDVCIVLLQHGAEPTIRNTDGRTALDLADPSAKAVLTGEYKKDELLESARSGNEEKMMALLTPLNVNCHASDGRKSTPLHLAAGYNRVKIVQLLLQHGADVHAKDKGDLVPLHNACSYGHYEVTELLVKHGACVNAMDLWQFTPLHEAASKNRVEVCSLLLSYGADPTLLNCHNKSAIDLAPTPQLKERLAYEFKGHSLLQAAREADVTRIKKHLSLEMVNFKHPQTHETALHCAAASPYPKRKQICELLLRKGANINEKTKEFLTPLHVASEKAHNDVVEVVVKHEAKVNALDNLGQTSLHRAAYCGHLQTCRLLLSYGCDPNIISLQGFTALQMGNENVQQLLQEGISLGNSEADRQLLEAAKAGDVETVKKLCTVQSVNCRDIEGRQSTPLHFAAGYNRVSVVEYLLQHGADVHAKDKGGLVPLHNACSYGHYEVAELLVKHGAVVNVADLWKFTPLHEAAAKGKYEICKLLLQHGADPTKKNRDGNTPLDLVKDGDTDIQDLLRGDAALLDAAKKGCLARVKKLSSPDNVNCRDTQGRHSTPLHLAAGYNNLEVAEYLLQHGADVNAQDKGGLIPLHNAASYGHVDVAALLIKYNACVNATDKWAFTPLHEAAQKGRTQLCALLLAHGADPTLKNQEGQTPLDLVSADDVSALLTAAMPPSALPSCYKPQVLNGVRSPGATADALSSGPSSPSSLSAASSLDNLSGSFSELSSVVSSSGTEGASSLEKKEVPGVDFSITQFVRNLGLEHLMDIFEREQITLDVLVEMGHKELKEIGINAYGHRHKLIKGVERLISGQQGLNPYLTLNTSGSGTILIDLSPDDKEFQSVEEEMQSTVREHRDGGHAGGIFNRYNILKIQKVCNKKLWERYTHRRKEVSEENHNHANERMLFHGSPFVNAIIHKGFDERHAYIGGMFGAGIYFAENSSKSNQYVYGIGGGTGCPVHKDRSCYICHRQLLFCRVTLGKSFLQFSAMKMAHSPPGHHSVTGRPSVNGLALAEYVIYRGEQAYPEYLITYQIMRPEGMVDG

| Compound | IC50 [1] [nM] | IC50 [2, 3] [nM] | IC50 [2, 4] [nM] | IC50 [2, 5] [nM] |
| --- | --- | --- | --- | --- |
| CCOc1ccc(-c2nnc([C@H]3C[C@H](NC(=O)c4ccc5ncccc5n4)C3)n2-c2cccnc2)nc1 [Example 163, N-((1r,3r)-3-(5-(5-ethoxypyridin-2-yl)-4-(pyridin-3-yl)-4H-1,2,4-triazol-3-yl)cyclobutyl)-1,5-naphthyridine-2-carboxamide] | 14 | 71 |  |  |
| CCOc1ccc(-c2nnc([C@H]3C[C@H](NC(=O)c4ccnc5cc(F)cnc45)C3)n2-c2cccnc2)nc1 [Example 164, N-((1r,3r)-3-(5-(5-ethoxypyridin-2-yl)-4-(pyridin-3-yl)-4H-1,2,4-triazol-3-yl)cyclobutyl)-7-fluoro-1,5-naphthyridine-4-carboxamide] | 5.8 |  | 9 |  |
| CCOc1ccc(-c2nnc(C34CC(NC(=O)c5ccnc6cccnc56)(C3)C4)n2-c2cccnc2)nc1 [Example 166, N-(3-(5-(5-ethoxypyridin-2-yl)-4-(pyridin-3-yl)-4H-1,2,4-triazol-3-yl)bicyclo[1.1.1]pentan-1-yl)-1,5-naphthyridine-4-carboxamide] | 9.6 |  |  | 30 |
| CCOc1ccc(-c2nnc([C@H]3C[C@H](NC(=O)c4ccnc5cccnc45)C3)n2-c2ccncc2)nc1 [Example 168, N-((1r,3r)-3-(5-(5-ethoxypyridin-2-yl)-4-(pyridin-4-yl)-4H-1,2,4-triazol-3-yl)cyclobutyl)-1,5-naphthyridine-4-carboxamide] | 5.4 |  | 13 |  |
| CCOc1ccc(-c2nnc([C@H]3C[C@H](NC(=O)c4ccc5ncccc5n4)C3)n2-c2ccncc2)nc1 [Example 169, N-((1r,3r)-3-(5-(5-ethoxypyridin-2-yl)-4-(pyridin-4-yl)-4H-1,2,4-triazol-3-yl)cyclobutyl)-1,5-naphthyridine-2-carboxamide] | 28 | 58 |  |  |
| CCOc1ccc(-c2nnc([C@H]3C[C@H](NC(=O)c4ccnc5cc(F)cnc45)C3)n2-c2ccncc2)nc1 [Example 170, N-((1r,3r)-3-(5-(5-ethoxypyridin-2-yl)-4-(pyridin-4-yl)-4H-1,2,4-triazol-3-yl)cyclobutyl)-7-fluoro-1,5-naphthyridine-4-carboxamide] | 2.9 |  | 6 |  |
| CCOc1ccc(-c2nnc(C34CC(NC(=O)c5ccnc6cccnc56)(C3)C4)n2-c2ccncc2)nc1 [Example 172, N-(3-(5-(5-ethoxypyridin-2-yl)-4-(pyridin-4-yl)-4H-1,2,4-triazol-3-yl)bicyclo[1.1.1]pentan-1-yl)-1,5-naphthyridine-4-carboxamide] | 9.4 |  |  | 43 |
| O=C(N[C@H]1C[C@H](c2nnc(-c3ccccc3)n2-c2ccccc2F)C1)c1ccccn1 [Example 174, N-((1S,3r)-3-(4-(2-fluorophenyl)-5-phenyl-4H-1,2,4-triazol-3-yl)cyclobutyl)picolinamide] | 216 |  | 789 |  |
| O=C(N[C@H]1C[C@H](c2nnc(-c3ccccc3)n2-c2ccccc2F)C1)c1ccc(F)cn1 [Example 175, 5-fluoro-N-((1S,3r)-3-(4-(2-fluorophenyl)-5-phenyl-4H-1,2,4-triazol-3-yl)cyclobutyl)picolinamide] | 150 | 499 |  |  |
| O=C(N[C@H]1C[C@H](c2nnc(-c3ccccc3)n2-c2ccccc2F)C1)c1ccnc2cccnc12 [Example 176, N-((1S,3r)-3-(4-(2-fluorophenyl)-5-phenyl-4H-1,2,4-triazol-3-yl)cyclobutyl)-1,5-naphthyridine-4-carboxamide] | 3.6 | 28 |  |  |
| O=C(N[C@H]1C[C@H](c2nnc(-c3ccccc3)n2-c2ccccc2F)C1)c1ccnc2cc(F)cnc12 [Example 177, 7-fluoro-N-((1S,3r)-3-(4-(2-fluorophenyl)-5-phenyl-4H-1,2,4-triazol-3-yl)cyclobutyl)-1,5-naphthyridine-4-carboxamide] | 3.8 | 25 |  |  |
| O=C(N[C@H]1C[C@H](c2nnc(-c3ccccc3)n2-c2ccccc2F)C1)c1ccc2cnccc2n1 [Example 178, N-((1S,3r)-3-(4-(2-fluorophenyl)-5-phenyl-4H-1,2,4-triazol-3-yl)cyclobutyl)-1,6-naphthyridine-2-carboxamide] | 21 | 165 |  |  |
| O=C(N[C@H]1C[C@H](c2nnc(-c3ccc(OC(F)F)cn3)n2-c2ccccc2F)C1)c1ccc2cnccc2n1 [Example 184, N-((1S,3r)-3-(5-(5-(difluoromethoxy)pyridin-2-yl)-4-(2-fluorophenyl)-4H-1,2,4-triazol-3-yl)cyclobutyl)-1,6-naphthyridine-2-carboxamide] | 3.4 | 10 |  |  |
| O=C(N[C@H]1C[C@H](c2nnc(-c3ccc(OC(F)F)cn3)n2-c2ccccc2F)C1)c1cccc2nccnc12 [Example 185, N-((1S,3r)-3-(5-(5-(difluoromethoxy)pyridin-2-yl)-4-(2-fluorophenyl)-4H-1,2,4-triazol-3-yl)cyclobutyl)quinoxaline-5-carboxamide] | 1.9 |  | 1.2 |  |
| O=C(N[C@H]1C[C@H](c2nnc(-c3ccc(OC(F)F)cn3)n2-c2ccccc2F)C1)c1cc(F)cc2nccnc12 [Example 186, N-((1S,3r)-3-(5-(5-(difluoromethoxy)pyridin-2-yl)-4-(2-fluorophenyl)-4H-1,2,4-triazol-3-yl)cyclobutyl)-7-fluoroquinoxaline-5-carboxamide] | 2.4 |  | 0.508 |  |
| O=C(N[C@H]1C[C@H](c2nnc(-c3ccccn3)n2-c2ccccc2F)C1)c1ccnc2cc(F)cnc12 [Example 191, 7-fluoro-N-((1S,3r)-3-(4-(2-fluorophenyl)-5-(pyridin-2-yl)-4H-1,2,4-triazol-3-yl)cyclobutyl)-1,5-naphthyridine-4-carboxamide] | 1.8 |  |  | 3.4 |
| O=C(N[C@H]1C[C@H](c2nnc(-c3ccccn3)n2-c2ccccc2F)C1)c1ccc2cnccc2n1 [Example 192, N-((1S,3r)-3-(4-(2-fluorophenyl)-5-(pyridin-2-yl)-4H-1,2,4-triazol-3-yl)cyclobutyl)-1,6-naphthyridine-2-carboxamide] | 4.3 | 5.3 |  |  |
| O=C(N[C@H]1C[C@H](c2nnc(-c3ccccn3)n2-c2ccccc2F)C1)c1cccc2nccnc12 [Example 193, N-((1S,3r)-3-(4-(2-fluorophenyl)-5-(pyridin-2-yl)-4H-1,2,4-triazol-3-yl)cyclobutyl)quinoxaline-5-carboxamide] | 1.6 |  | 0.286 |  |
| O=C(N[C@H]1C[C@H](c2nnc(-c3ccccn3)n2-c2ccccc2F)C1)c1cc(F)cc2nccnc12 [Example 194, 7-fluoro-N-((1S,3r)-3-(4-(2-fluorophenyl)-5-(pyridin-2-yl)-4H-1,2,4-triazol-3-yl)cyclobutyl)quinoxaline-5-carboxamide] | 2 |  | 0.794 |  |
| Cc1cccc(-c2nnc([C@H]3C[C@H](NC(=O)c4ccc5cnccc5n4)C3)n2-c2ccccc2F)n1 [Example 200, N-((1S,3r)-3-(4-(2-fluorophenyl)-5-(6-methylpyridin-2-yl)-4H-1,2,4-triazol-3-yl)cyclobutyl)-1,6-naphthyridine-2-carboxamide] | 4 | 12 |  |  |
| Cc1cccc(-c2nnc([C@H]3C[C@H](NC(=O)c4cccc5nccnc45)C3)n2-c2ccccc2F)n1 [Example 201, N-((1S,3r)-3-(4-(2-fluorophenyl)-5-(6-methylpyridin-2-yl)-4H-1,2,4-triazol-3-yl)cyclobutyl)quinoxaline-5-carboxamide] | 1.7 |  | 1.5 |  |
| Cc1cccc(-c2nnc([C@H]3C[C@H](NC(=O)c4cc(F)cc5nccnc45)C3)n2-c2ccccc2F)n1 [Example 202, 7-fluoro-N-((1S,3r)-3-(4-(2-fluorophenyl)-5-(6-methylpyridin-2-yl)-4H-1,2,4-triazol-3-yl)cyclobutyl)quinoxaline-5-carboxamide] | 1.6 |  | 0.169 |  |
